Data from patent US20080234266A1, “Squaric Acid Derivatives II” (priority 2005, published 2008).
pIC50: −log10 of the molar value.

Target: T1, CHK1 kinase (Homo sapiens, UniProt O14757)
T1 construct: glutathione S-transferase (GST); made in house; host or cells: Sf21 insect cells (S. frugiperda), baculovirus
T1 sequence (O14757 1-476): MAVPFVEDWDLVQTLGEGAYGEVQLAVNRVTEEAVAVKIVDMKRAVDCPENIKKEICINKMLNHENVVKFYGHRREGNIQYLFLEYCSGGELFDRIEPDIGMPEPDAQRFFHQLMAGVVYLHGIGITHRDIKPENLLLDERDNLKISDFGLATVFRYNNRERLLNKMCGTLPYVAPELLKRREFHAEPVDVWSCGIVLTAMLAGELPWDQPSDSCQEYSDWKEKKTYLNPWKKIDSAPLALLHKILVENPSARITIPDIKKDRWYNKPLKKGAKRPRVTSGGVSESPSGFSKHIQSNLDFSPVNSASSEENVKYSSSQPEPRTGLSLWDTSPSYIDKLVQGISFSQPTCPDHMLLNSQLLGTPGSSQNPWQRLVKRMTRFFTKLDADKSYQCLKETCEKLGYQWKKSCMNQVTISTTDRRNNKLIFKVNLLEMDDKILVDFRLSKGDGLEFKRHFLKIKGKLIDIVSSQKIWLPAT
Test: Flashplate method (CHK1), measurement of the CHK1 kinase activity
Type: biochemical
Conditions: class symbols; 'Affinity to receptors'
Procedure: CHK1 kinase is expressed for the purposes of protein production in insect cells (Sf21; S. frugiperda) and subsequent purification by affinity chromatography as fusion protein with glutathione S-transferase in a baculovirus expression vector. The cultivation, infection and digestion of the cells as well as the purification of the fusion protein by column chromatography are carried out in accordance with manufacturer-oriented generic working instructions.
The kinase activity is measured using various available measurement systems. In the scintillation proximity method (Sorg et al., J. of. Biomolecular Screening, 2002, 7, 11-19), the flashplate method or the filter binding test, the radioactive phosphorylation of a protein or peptide as substrate is measured using radioactively labelled ATP (γ^32P-ATP, (γ^33P-ATP). In the case of the presence of an inhibitory compound, a reduced radioactive signal, or none at all, can be detected. Furthermore, homogeneous time-resolved fluorescence resonance energy transfer (HTR-FRET) and fluorescence polarisation (FP) technologies are useful as assay methods (Sills et al., J. of Biomolecular Screening, 2002, 191-214).
The test plates used are 384-well streptavidin-coated Flashplates Plus® from Perkin Elmer (Cat.No. SMP410A001PK). The assay plate is equilibrated with 75 μl of assay buffer per well 30 min before commencement of the experiment. The buffer is sucked out before commencement of the experiment, and the components of the kinase reaction described below are pipetted onto the plate.
CHK1 kinase, a biotinylated substrate peptide (for example CHKtide: […]), is incubated with radioactively labelled ATP in the presence and absence of test substances at 30° Celsius and a total volume of 50 μl. The reaction is terminated using 25 μl of a 0.2 M EDTA solution. After incubation for 30 min at room temperature, the supernatants are filtered off with suction, and the wells are washed three times with 100 μl of 0.9% NaCl solution each time. The measurement of the bound radioactivity is carried out by means of a scintillation measuring instrument (Topcount NXT, Perkin-Elmer).
The full value used is the inhibitor-free kinase reaction. This should be approximately in the range 3000-4000 cpm. The pharmacological zero value used is staurosporin in a final concentration of 0.1 μM. The inhibitory values (IC50) are determined using the program RS1_MTS ( ).
Kinase reaction conditions per well:
0.15 μg of CHKtide ([…])
50 μl total volume (1-fold assay buffer reaction conditions)
Solutions used: • assay buffer:
0.1 mM Titriplex VI (EGTA
10 mM magnesium acetate 0.1% mercaptoethanol
pH=7.5 (to be set using hydrochloric acid) Bovine serum albumin (final concentration 0.1%) is not added until just before use. • stop solution:
0.2 M TitriplexIII (EDTA)
• γ^33P-ATP (Perkin-Elmer) • CHK1 kinase preparations: specific activity>50 U/mg • CHKtide solution: biotinylated peptide substrate (Biotrend) stored as stock solution (concentration 0.15 mg/ml).

pIC50	Compound
< 6.00	O=c1c(NCc2ccc(F)c(F)c2)c(Nc2ccc3[nH]cnc3c2)c1=O [Compound A43, 3-(1H-benzimidazol-5-ylamino)-4-(3,4-di-fluorobenzylamino)cyclobut-3-ene-1,2-dione]
< 6.00	CNS(=O)(=O)c1cccc(CNc2c(Nc3ccc4[nH]cnc4c3)c(=O)c2=O)c1 [Compound A44, 3-(1H-benzimidazol-5-ylamino)-4-[3-(methyl-aminosulfonyl)benzylamino]cyclobut-3-ene-1,2-dione]
< 6.00	CC(=O)Nc1cccc(CNc2c(Nc3ccc4[nH]cnc4c3)c(=O)c2=O)c1 [Compound A45, 3-(1H-benzimidazol-5-ylamino)-4-(3-acetamidobenzylamino)cyclobut-3-ene-1,2-dione]
< 6.00	CCn1c2ccccc2c2cc(Nc3c(NCc4cccc(O)c4)c(=O)c3=O)ccc21 [Compound A47, 3-(9-ethyl-9H-carbazol-3-ylamino)-4-(3-hydroxybenzylamino)cyclobut-3-ene-1,2-dione]
> 6.00	O=c1c(NCc2cccc(O)c2)c(Nc2ccc3nccn3c2)c1=O [Compound A49, 3-(imidazo[1,2-a]pyridin-6-ylamino)-4-(3-hydroxybenzylamino)cyclobut-3-ene-1,2-dione]
< 6.00	Cn1cnc2cc(Nc3c(NCc4cccc(O)c4)c(=O)c3=O)ccc21 [Compound A50, 3-(1-methyl-1H-benzimidazol-5-ylamino)-4-(3-hydroxybenzylamino)cyclobut-3-ene-1,2-dione]
< 6.00	COc1cccc([C@H](C)Nc2c(Nc3ccc4c(c3)ncn4C)c(=O)c2=O)c1 [Compound A51, 3-[(S)-1-(3-methoxyphenyl)ethylamino]-4-(1-methyl-1H-benzimidazol-5-ylamino)cyclobut-3-ene-1,2-dione]
> 6.00	Cn1cnc2ccc(Nc3c(NCc4cccc(O)c4)c(=O)c3=O)cc21 [Compound A52, 3-(3-hydroxybenzylamino)-4-(3-methyl-3H-benzimidazol-5-ylamino)cyclobut-3-ene-1,2-dione]
> 6.00	COc1cccc([C@@H](C)Nc2c(Nc3ccc4ncn(C)c4c3)c(=O)c2=O)c1 [Compound A53, 3-[(R)-1-(3-methoxyphenyl)ethylamino]-4-(3-methyl-3H-benzimidazol-5-ylamino)cyclobut-3-ene-1,2-dione]
< 6.00	Cc1cc2nccn2cc1Nc1c(NCc2cccc(O)c2)c(=O)c1=O [Compound A54, 3-(3-hydroxybenzylamino)-4-(7-methyl-imidazo[1,2-a]pyridin-6-ylamino)cyclobut-3-ene-1,2-dione]
< 6.00	Cc1cc(Nc2c(NCc3cccc(O)c3)c(=O)c2=O)cn2ccnc12 [Compound A55, 3-(3-hydroxybenzylamino)-4-(8-methyl-imidazo[1,2-a]pyridin-6-ylamino)cyclobut-3-ene-1,2-dione]
< 6.00	CCN(CC)CCn1cnc2ccc(Nc3c(N[C@H](C)c4cccc(OC)c4)c(=O)c3=O)cc21 [Compound A65, 3-[3-(2-diethylaminoethyl)-3H-benzimidazol-5-ylamino]-4-[(R)-1-(3-methoxyphenyl)ethyl-amino]cyclobut-3-ene-1,2-dione]
< 6.00	CCN(CC)CCn1cnc2ccc(Nc3c(N[C@H](C)c4cccc(O)c4)c(=O)c3=O)cc21 [Compound A66, 3-[3-(2-diethylaminoethyl)-3H-benzimidazol-5-ylamino]-4-[(R)-1-(3-hydroxyphenyl)ethyl-amino]cyclobut-3-ene-1,2-dione]
> 6.00	COCCn1cnc2ccc(Nc3c(N[C@H](C)c4cccc(O)c4)c(=O)c3=O)cc21 [Compound A68, 3-[3-(2-methoxyethyl)-3H-benzimidazol-5-ylamino]-4-[(R)-1-(3-hydroxyphenyl)ethyl-amino]cyclobut-3-ene-1,2-dione]
< 6.00	COCCn1cnc2ccc(Nc3c(NCc4cccc(-c5nnn[nH]5)c4)c(=O)c3=O)cc21 [Compound A69, 3-[3-(2-methoxyethyl)-3H-benzimidazol-5-ylamino]-4-[3-(1H-tetrazol-5-yl)benzylamino]-cyclobut-3-ene-1,2-dione]
< 6.00	COCCn1cnc2ccc(Nc3c(NCc4cccc(S(N)(=O)=O)c4)c(=O)c3=O)cc21 [Compound A70, 3-[3-(2-methoxyethyl)-3H-benzimidazol-5-ylamino]-4-(3-aminosulfonylbenzylamino)-cyclobut-3-ene-1,2-dione]
< 6.00	CCN(CC)CCn1cnc2ccc(Nc3c(NCc4cccc(S(N)(=O)=O)c4)c(=O)c3=O)cc21 [Compound A71, 3-[3-(2-diethylaminoethyl)-3H-benzimidazol-5-ylamino]-4-(3-aminosulfonylbenzylamino)-cyclobut-3-ene-1,2-dione]
< 6.00	COCCn1cnc2cc(Nc3c(N[C@H](C)c4cccc(OC)c4)c(=O)c3=O)ccc21 [Compound A72, 3-[1-(2-methoxyethyl)-1H-benzimidazol-5-ylamino]-4-[(R)-1-(3-methoxyphenyl)ethyl-amino]cyclobut-3-ene-1,2-dione]
< 6.00	CCN(CC)CCn1cnc2cc(Nc3c(N[C@H](C)c4cccc(O)c4)c(=O)c3=O)ccc21 [Compound A73, 3-[1-(2-diethylaminoethyl)-1H-benzimidazol-5-ylamino]-4-[(R)-1-(3-hydroxyphenyl)ethyl-amino]cyclobut-3-ene-1,2-dione]
< 6.00	COCCn1cnc2cc(Nc3c(N[C@H](C)c4cccc(O)c4)c(=O)c3=O)ccc21 [Compound A74, 3-[(R)-1-(3-hydroxyphenyl)ethylamino]-4-[1-(2-methoxyethyl)-1H-benzimidazol-5-yl-amino]cyclobut-3-ene-1,2-dione]
< 6.00	CC(Nc1c(Nc2ccc3[nH]cnc3c2)c(=O)c1=O)c1ccc2[nH]ccc2c1 (stereo not drawn) [Compound A75, 3-(1H-benzimidazol-5-ylamino)-4-[1-(1H-indol-5-yl)ethylamino]cyclobut-3-ene-1,2-dione]
< 6.00	COc1cc(CNc2c(Nc3ccc4[nH]cnc4c3)c(=O)c2=O)ccc1F [Compound A76, 3-(1H-benzimidazol-5-ylamino)-4-(4-fluoro-3-methoxybenzylamino)cyclobut-3-ene-1,2-dione]
< 6.00	CS(=O)(=O)Nc1cccc(CNc2c(Nc3ccc4[nH]cnc4c3)c(=O)c2=O)c1 [Compound A77, 3-(1H-benzimidazol-5-ylamino)-4-(3-methyl-sulfonylaminobenzylamino)cyclobut-3-ene-1,2-dione]
< 6.00	O=c1c(NCc2cc(F)c(F)c(O)c2F)c(Nc2ccc3[nH]cnc3c2)c1=O [Compound A78, 3-(1H-benzimidazol-5-ylamino)-4-(2,4,5-trifluoro-3-hydroxybenzylamino)cyclobut-3-ene-1,2-dione]
< 6.00	O=c1c(NCc2ccc3[nH]ccc3c2)c(Nc2ccc3[nH]cnc3c2)c1=O [Compound A79, 3-(1H-benzimidazol-5-ylamino)-4-[(1H-indol-5-ylmethyl)amino]cyclobut-3-ene-1,2-dione]
< 6.00	O=c1[nH]c2ccc(CNc3c(Nc4ccc5[nH]cnc5c4)c(=O)c3=O)cc2[nH]1 [Compound A80, 3-(1H-benzimidazol-5-ylamino)-4-[(2-oxo-2,3-dihydro-1H-benzimidazol-5-ylmethyl)amino]-cyclobut-3-ene-1,2-dione]
< 6.00	CCOC(=O)c1cc2cc(Nc3c(NCc4cccc(O)c4)c(=O)c3=O)ccc2[nH]1 [Compound A81, 3-(2-ethoxycarbonyl-1H-indol-5-ylamino)-4-(3-hydroxybenzylamino)cyclobut-3-ene-1,2-dione]
